Reference: article PMC11875561, “Molecular Insights into the Heme‐Binding Potential of Plant NCR247‐Derived Peptides” (Chembiochem, 2025)
pKd: −log10 of the molar value. Bridge positions count the residues as written; N and C are the ends. Ends that are not written are not given here.

Legend:
[1] = UV/vis titration of MBP in complex with NCR247_1–4,2–3 with heme; conditions: peptide versus MBP
Experimental: (§21) UV/vis titration experiments of peptides and proteins with heme.
(§22) Maltose-binding protein (Rockland Inc. Pennsylvania, USA) (10 µM) was preincubated with heme in different concentrations (4 - 40
(§23) µM) for 30 min in HEPES buffer (pH 7.0) prior to the UV/vis spectroscopic analysis. Subsequently, absorbance spectra were recorded
and analysed analogously to the heme-binding studies with the peptides described above.[2] Similar to the aforementioned approach,
NCR247 was added and measured spectroscopically. In addition to this, 10 µM NCR247_1-4,2-3 was incubated with increasing

NCR247_reduced [2] = assay: UV/vis difference-spectroscopic titration of peptide (10 or 20 uM) with heme (0.4-40 uM) in 100 mM HEPES pH 7.0 after 1 min incubation, evaluated near 428 nm for one binding site.
Experimental: (§1) Heme binding to the NCR247 parent peptide and its analogues was assessed using UV/vis spectroscopy (Table S2) following an earlier established experimental set‐up,[27, 30, 31, 32] with heme (0.4 to 40 μM) titrated to NCR247 peptide (20 μM) in 100 mM HEPES buffer (pH 7.0). […] The KD value for this peptide was first determined by adjusting the established protocol[30] to 1 min incubation time, while at an incubation time of 30 min concomitant oxidation of the cysteine residues has taken place as indicated by the fact that a stable complex was formed only in the first minutes and then a change in the spectrum occurred which is due to disulfide bond formation changing the heme‐binding behaviour of the peptide. […]
(§2) Heme binding to the NCR247-derived peptides (Fig. 1, Table S1) was investigated by UV/vis spectroscopy, as described earlier.[2,3,7– 9] […] Absorbance spectra were recorded on a Multiskan GO spectrophotometer (ThermoScientific, Dreieich, Germany) in the range of 300 - 600 nm. Difference spectra were generated by subtracting the spectra of heme and peptide alone from the absorbance spectrum of the hemin-peptide complex. Dissociation constants (KD) were determined by using GraphPad Prism 10.0.2 and the earlier established equation from Pîrnău and Bogdan, as described elsewhere.[7,10]

NCR247_reduced [3] = assay: UV/vis difference-spectroscopic titration of peptide (10 or 20 uM) with heme (0.4-40 uM) in 100 mM HEPES pH 7.0 after 30 min incubation at room temperature, one binding site.
Experimental: Heme binding to the NCR247 parent peptide and its analogues was assessed using UV/vis spectroscopy (Table S2) following an earlier established experimental set‐up,[27, 30, 31, 32] with heme (0.4 to 40 μM) titrated to NCR247 peptide (20 μM) in 100 mM HEPES buffer (pH 7.0). […] time, while at an incubation time of 30 min concomitant oxidation of the cysteine residues has taken place as indicated by the fact that a stable complex was formed only in the first minutes and then a change in the spectrum occurred which is due to disulfide bond formation changing the heme‐binding behaviour of the peptide.
Figure 4 Heme‐binding analysis of NCR247 peptides. […] The complex formation was analysed after incubating it for 30 min at room temperature. The change in the spectral behaviour when measured after 1 min and 30 min of complex incubation is noteworthy. The intensity of the bands at λ =364 nm, indicate a change in the peptide and can be attributed to concomitant oxidation of free Cys residues in aqueous buffer systems, making the Soret band at λ =428 nm more prominent, similar to the one observed in case of the oxidized isomers. d, Peroxidase‐like activity assay of heme‐NCR247 complex measured using an oxidative conversion of TMB substrate at 652 nm. […]

NCR247_1-2,3-4 = target: T1, NCR247_1-2,3-4; assay: as above
T1 construct: synthetic 24mer, oxidized isomer, disulfides Cys4-Cys10 and Cys15-Cys21
Experimental: (§3) Heme binding to the NCR247 parent peptide and its analogues was assessed using UV/vis spectroscopy (Table S2) following an earlier established experimental set‐up,[27, 30, 31, 32] with heme (0.4 to 40 μM) titrated to NCR247 peptide (20 μM) in 100 mM HEPES buffer (pH 7.0). […] The KD value for this peptide was first determined by adjusting the established protocol[30] to 1 min incubation time, while at an incubation time of 30 min concomitant oxidation of the cysteine residues has taken place as indicated by the fact that a stable complex was formed only in the first minutes and then a change in the spectrum occurred which is due to disulfide bond formation changing the heme‐binding behaviour of the peptide.
(§4) Figure 4 Heme‐binding analysis of NCR247 peptides. UV/vis spectroscopic analysis upon addition of increasing concentrations of heme (0.4–40 μM) to NCR247 oxidized isomers (on the left), in silico docking analysis (in the middle) showing residues involved in heme binding and rRaman spectra of heme‐peptide (1 : 1) complex (on the right). a, NCR247_1–3,2–4. b, NCR247_1–2,3–4. c, NCR247_reduced form, with free Cys residues. The complex formation was analysed after incubating it for 30 min at room temperature. The change in the spectral behaviour when measured after 1 min and 30 min of complex incubation is noteworthy. The intensity of the bands at λ =364 nm, indicate a change in the peptide and can be attributed to concomitant oxidation of free Cys residues in aqueous buffer systems, making the Soret band at λ =428 nm more prominent, similar to the one observed in case of the oxidized isomers. d, Peroxidase‐like activity assay of heme‐NCR247 complex measured using an oxidative conversion of TMB substrate at 652 nm. […]
(§5) Under oxidative reaction conditions, the cysteines were deprotected and folded by formation of the disulfide bridges between the cysteines according to protocols reported earlier.[4,5] […]

NCR247_1-3,2-4 = target: T2, NCR247_1-3,2-4; assay: as above
T2 construct: synthetic 24mer, oxidized isomer, disulfides Cys4-Cys15 and Cys10-Cys21
Experimental: as §3, §4, §5

NCR247_1-4,2-3 = target: T3, NCR247_1-4,2-3; assay: as above
T3 construct: synthetic 24mer, oxidized isomer, disulfides Cys4-Cys21 and Cys10-Cys15
Experimental: as §3, §4, §5

MBP = target: T4, MBP (Escherichia coli, UniProt P0AEX9); assay: UV/vis spectroscopic titration of MBP (10 uM) with heme (4-40 uM) in HEPES pH 7.0 after 30 min incubation, 1:1 model, Soret band near 400 nm.; type: binding; conditions: read-out: KD value, stoichiometry 1:1 (MBP:heme)
T4 construct: gene malE; commercial (Rockland Inc.)
Experimental: We thus conducted UV/vis measurements[36, 41] by titrating increasing concentrations of heme (4–40 μM) to the protein (10 μM).
as §21, §22, §23
and analysed analogously to the heme-binding studies with the peptides described above.[2]

MBP-NCR247_1-4,2-3 [4] = assay: UV/vis spectroscopic titration of preformed MBP (10 uM) plus NCR247_1-4,2-3 (10 uM) with heme (4-45 uM), 30 min incubation, evaluated near 420 nm with a 1:1 model.; type: binding; conditions: read-out: KD value, stoichiometry 1:1 (MBP-NCR247_1-4,2-3:heme)
Experimental: (§6) Peroxidase-like activity of the heme-peptide complexes.
(§7) 10 μl of the heme-peptide complex (final concentration:
(§8) (100%) and evaluated as the average of triplicate measurements.
(§9) Subsequently, absorbance spectra were recorded
(§10) Similar to the aforementioned approach,
(§11) NCR247 was added and measured spectroscopically.
(§12) Resonance Raman spectroscopy of the heme-peptide complexes.
(§13) -60°C (ANDOR, Ireland, 1024x127 pixels) used for detection.
(§14) were combined in an equimolar ratio.
(§15) The raw Raman spectra were
(§16) visualised using the graphing software OriginPro 2016G Sr2.
(§17) clipping (SNIP) algorithm, and vector normalisation.
(§18) Circular Dichroism (CD) spectroscopy with NCR247-derived peptides.
(§19) All the peptide solutions were prepared
(§20) prediction tool. […] The structure

MBP-NCR247_1-4,2-3 [5] = assay: UV/vis spectroscopic titration of preformed MBP (10 uM) plus NCR247_1-4,2-3 (10 uM) with heme (4-45 uM), 30 min incubation, evaluated with a model of two heme molecules per complex.; conditions: read-out: KD value, two heme molecules binding to the MBP-NCR247_1-4,2-3 complex
Experimental: as §6, §7, §8, §9, §10, §11, §12, §13, §14, §15, §16, §17, §18, §19, §20

[6] = UV/vis spectroscopy heme binding to NCR247-derived peptides; conditions: 30 min incubation; Soret λ ~420 nm (oxidized isomers) or ~428 nm (reduced); n=1; peptide 20 μM, heme 0.4-40 μM, 100 mM HEPES pH 7.0
Experimental: as §1, §2

[7] = set-up: method as in earlier work; conditions: ref 11 (Sankari et al.); cited from earlier work

With “NCR247_1–4,2–3: RNGCIVDPRCPYQQCRRPLYCRRR, isomer with bridges Cys4‐Cys21 and Cys10‐Cys15 (disulfide 10-15, 4-21)” the “binding affinity of the peptide compared to the protein (MBP)” value [1] was “two‐fold higher”.

For `C=CC1=C(C)c2cc3[nH]c(cc4nc(cc5[nH]c(cc1n2)c(C)c5CCC(=O)O)C(CCC(=O)O)=C4C)c(C)c3C=C.[Fe+3]` [heme, Fe(III) protoporphyrin IX (Fe(III)PPIX, hemin)], the Kd (NCR247_reduced [2]) was 1.44 µM, the pKd (NCR247_reduced [3]) was 5.64 and the pKd (NCR247_1-2,3-4) was 5.53. The pKd (NCR247_1-3,2-4) was 5.68, the pKd (NCR247_1-4,2-3) was 5.55 and the pKd (MBP) was 5.14. It also gave a pKd (MBP-NCR247_1-4,2-3 [4]) of 4.83 and a pKd (MBP-NCR247_1-4,2-3 [5]) of 5.12.

In the case of “NSR247: RNGSIVDPRSPYQQSRRPLYSRRR, mutant with all cysteine residues replaced with serine, negative control”, the KD heme binding [6] is given as “n.b. and completely lost and absence of heme binding” and the heme-binding affinity [7] is given as “μM range”.
